This assay has as its target T1, histamine 3 receptor (H3R) (Homo sapiens, UniProt Q9Y5N1).
T1 construct: expressed in transfected cells; host or cells: CHO
The assay is described as follows: Binding assay with 3H-(R)α-Methylhistamine (competition binding, HR3-CHO membranes). As to conditions: competition binding vs 3H(R)α-Methylhistamine (1 nM), membrane of the human HR3-CHO cell line; Ki calculated from IC50 (Cheng-Prusoff). As to the method:
Binding Assay with ^3H—(R)α-Methylhistamine
Saturation binding experiments were performed using HR3-CHO membranes prepared as described in Takahashi, K, Tokita, S., Kotani, H. (2003) J. Pharmacol. Exp. Therapeutics 307, 213-218.
An appropriate amount of membrane (60 to 80 μg protein/well) was incubated with increasing concentrations of ^3H(R)α-Methylhistamine di-hydrochloride (0.10 to 10 nM). Non specific binding was determined using a 200 fold excess of cold (R)α-Methylhistamine dihydrobromide (500 nM final concentration). The incubation was carried out at room temperature (in deep-well plates shaking for three hours). The final volume in each well was 250 μl. The incubation was followed by rapid filtration on GF/B filters (pre-soaked with 100 μl of 0.5% PEI in Tris 50 mM shaking at 200 rpm for two hours). The filtration was made using a cell-harvester and the filter plates were then washed five times with ice cold washing buffer containing 0.5 M NaCl. After harvesting, the plates were dried at 55° C. for 60 min, then we added scintillation fluid (Microscint 40, 40 microl in each well) and the amount of radioactivity on the filter was determined in Packard top-counter after shaking the plates for two hours at 200 rpm at room temperature.
Binding Buffer: 50 mM Tris-HCl pH 7.4 and 5 mM MgCl2x6H2O pH 7.4. Washing Buffer: 50 mM Tris-HCl pH 7.4 and 5 mM MgCl2x6H2O and 0.5 M NaCl pH 7.4.
Indirect measurement of affinity of H3R inverse agonists: twelve increasing concentrations (ranging from 10 μM to 0.3 nM) of the selected compounds were always tested in competition binding experiments using membrane of the human HR3-CHO cell line. An appropriate amount of protein, e.g. approximately 500 cpm binding of RAMH at Kd, were incubated for 1 hour at room temperature in 250 μl final volume in 96-well plates in presence of ^3H(R)α-Methylhistamine (1 nM final concentration=Kd). Non-specific binding was determined using a 200 fold excess of cold (R)α-Methylhistamine dihydrobromide.
All compounds were tested at a single concentration in duplicates. […] Ki's were calculated from IC50 based on Cheng-Prusoff equation (Cheng, Y, Prusoff, W H (1973) Biochem Pharmacol 22, 3099-3108).
T1 sequence (Q9Y5N1 whole entry): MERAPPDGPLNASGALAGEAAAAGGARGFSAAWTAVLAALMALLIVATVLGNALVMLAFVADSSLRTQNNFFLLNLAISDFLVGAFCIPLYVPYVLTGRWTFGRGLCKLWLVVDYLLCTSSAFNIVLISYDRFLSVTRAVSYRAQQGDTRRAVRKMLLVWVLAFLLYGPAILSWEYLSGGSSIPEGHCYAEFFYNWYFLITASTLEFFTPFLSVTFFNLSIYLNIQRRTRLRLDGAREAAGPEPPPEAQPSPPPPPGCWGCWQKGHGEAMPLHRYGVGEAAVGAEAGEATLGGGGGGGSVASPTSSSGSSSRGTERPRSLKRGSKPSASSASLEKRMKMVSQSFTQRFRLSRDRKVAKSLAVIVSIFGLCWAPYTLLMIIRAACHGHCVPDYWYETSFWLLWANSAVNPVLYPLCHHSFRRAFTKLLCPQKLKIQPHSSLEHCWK
`O=C(c1ccc2[nH]c(C(=O)N3CCCCC3)cc2c1)N1CCN(C2CCCC2)CC1` [Example 5, [5-(4-Cyclopentyl-piperazine-1-carbonyl)-1H-indol-2-yl]-piperidin-1-yl-methanone]: the Ki was 28.7 nM.

As to `COc1cccc(-n2c(C(=O)N3CCC(F)(F)CC3)cc3cc(C(=O)N4CCN(C5CCCC5)CC4)ccc32)c1` [Example 84, [5-(4-Cyclopentyl-piperazine-1-carbonyl)-1-(3-methoxy-phenyl)-1H-indol-2-yl]-(4,4-difluoro-piperidin-1-yl)-methanone], the Ki was 35.6 nM. Consider `CC(C)N1CCN(C(=O)c2ccc3c(c2)cc(C(=O)N2CCS(=O)(=O)CC2)n3-c2cccc(Cl)c2)CC1` [Example 97, [1-(3-Chloro-phenyl)-5-(4-isopropyl-piperazine-1-carbonyl)-1H-indol-2-yl]-(1,1-dioxo-thiomorpholin-4-yl)-methanone], for which the inhibitory constant (Ki) is 13.4 nM. For `CC(C)N1CCN(C(=O)c2ccc3c(c2)cc(C(=O)N2CCC(F)(F)CC2)n3C2CCC2)CC1` [Example 150, [1-Cyclobutyl-2-(4,4-difluoro-piperidine-1-carbonyl)-1H-indol-5-yl]-(4-isopropyl-piperazin-1-yl)-methanone], the inhibitory constant (Ki) is 25.2 nM. In the case of `CC(C)N1CCN(C(=O)c2ccc3c(c2)cc(C(=O)N2CCS(=O)(=O)CC2)n3-c2ccc(S(C)(=O)=O)cc2)CC1` [Example 221, (1,1-Dioxothiomorpholin-4-yl)-[5-(4-isopropyl-piperazine-1-carbonyl)-1-(4-methanesulfonyl-phenyl)-1H-indol-2-yl]-methanone], the inhibition constant (Ki) is 22.6 nM. Regarding `CC(C)N1CCCN(C(=O)c2ccc3[nH]c(C(=O)N4CCS(=O)(=O)CC4)cc3c2)CC1` [Example 245, (1,1-Dioxo-thiomorpholin-4-yl)-[5-(4-isopropyl-[1,4]diazepane-1-carbonyl)-1H-indol-2-yl]-methanone], the inhibition constant (Ki) is 41 nM.

As a reminder, the Ki is the dissociation constant of the complex between target and ligand, obtained from inhibition or displacement.

Source of the values: US7723325B2, “5-amido-indole-2-carboxamide derivatives” (Hoffman-La Roche Inc., priority 2006, dated 2010).
